Reference: US9586962B2, “Disubstituted octahydropyrrolo [3,4-C] pyrroles as orexin receptor modulators” (Janssen Pharmaceutica NV, priority 2011, dated 2017)

The compounds below were run against T1, human orexin 2 receptor (Homo sapiens (Human), UniProt O43614) (assay: Human orexin 2 receptor radioligand binding ([3H]EMPA competition, HEK293 cells)). Settings: HEK293 cells expressing human orexin-2 receptor, read-out: OR 2 Ki.
T1 sequence (O43614 whole entry): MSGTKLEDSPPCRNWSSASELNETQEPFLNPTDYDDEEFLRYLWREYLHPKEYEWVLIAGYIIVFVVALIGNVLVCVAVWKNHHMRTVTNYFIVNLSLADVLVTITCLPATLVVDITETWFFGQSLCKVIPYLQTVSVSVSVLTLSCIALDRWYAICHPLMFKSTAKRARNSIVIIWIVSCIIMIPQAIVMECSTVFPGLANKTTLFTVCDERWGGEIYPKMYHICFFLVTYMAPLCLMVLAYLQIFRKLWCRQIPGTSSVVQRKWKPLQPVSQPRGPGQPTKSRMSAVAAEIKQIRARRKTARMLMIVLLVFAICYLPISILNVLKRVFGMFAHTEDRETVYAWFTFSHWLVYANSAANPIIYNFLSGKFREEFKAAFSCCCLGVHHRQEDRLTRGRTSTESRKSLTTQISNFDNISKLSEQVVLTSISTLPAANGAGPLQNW
With `Cc1cc(C)nc(N2CC3CN(C(=O)c4ncccc4C(F)(F)F)CC3C2)n1` (stereo not drawn) [Example 413, 2-(4,6-Dimethylpyrimidin-2-yl)-5-{[3-(trifluoromethyl)pyridin-2-yl]carbonyl}octahydropyrrolo[3,4-c]pyrrole] the Ki was 9000 nM. `CCOc1ccc(C)nc1C(=O)N1CC2CN(c3nc(C)cc(C)n3)CC2C1` (stereo not drawn) [Example 414, 2-(4,6-Dimethylpyrimidin-2-yl)-5-[(3-ethoxy-6-methylpyridin-2-yl)carbonyl]octahydropyrrolo[3,4-c]pyrrole] showed a Ki of 897 nM. `CCOc1ncccc1C(=O)N1CC2CN(c3nc(C)cc(C)n3)CC2C1` (stereo not drawn) [Example 415, 2-(4,6-Dimethylpyrimidin-2-yl)-5-[(2-ethoxypyridin-3-yl)carbonyl]octahydropyrrolo[3,4-c]pyrrole] was tested, and the Ki was 334 nM. `Cc1nc(N(C)C)cc(N2CC3CN(C(=O)c4cccc(F)c4-n4nccn4)CC3C2)n1` (stereo not drawn) [Example 416, 6-[5-{[3-Fluoro-2-(2H-1,2,3-triazol-2-yl)phenyl]carbonyl}hexahydropyrrolo[3,4-c]pyrrol-2(1H)-yl]-N,N,2-trimethylpyrimidin-4-amine] was tested, and the Ki was 164 nM. Work on `Cc1nc(N(C)C)cc(N2CC3CN(C(=O)c4ccc(F)cc4-n4nccn4)CC3C2)n1` (stereo not drawn) [Example 417, 6-[5-{[4-Fluoro-2-(2H-1,2,3-triazol-2-yl)phenyl]carbonyl}hexahydropyrrolo[3,4-c]pyrrol-2(1H)-yl]-N,N,2-trimethylpyrimidin-4-amine] yielded a Ki of 62 nM. In the case of `Cc1nc(N(C)C)cc(N2CC3CN(C(=O)c4c(F)cccc4-n4nccn4)CC3C2)n1` (stereo not drawn) [Example 418, 6-[5-{[2-Fluoro-6-(2H-1,2,3-triazol-2-yl)phenyl]carbonyl}hexahydropyrrolo[3,4-c]pyrrol-2(1H)-yl]-N,N,2-trimethylpyrimidin-4-amine], the Ki is reported as 55 nM. Work on `CCCOc1ccc(C)nc1C(=O)N1CC2CN(c3nc(C)cc(C)n3)CC2C1` (stereo not drawn) [Example 419, 2-(4,6-Dimethylpyrimidin-2-yl)-5-[(6-methyl-3-propoxypyridin-2-yl)carbonyl]octahydropyrrolo[3,4-c]pyrrole] yielded a Ki of 1070 nM. In the case of `CCOc1ccc(C)nc1C(=O)N1CC2CN(c3cc(N(C)C)nc(C)n3)CC2C1` (stereo not drawn) [Example 420, 6-{5-[(3-Ethoxy-6-methylpyridin-2-yl)carbonyl]hexahydro-pyrrolo[3,4-c]pyrrol-2(1H)-yl}-N,N,2-trimethylpyrimidin-4-amine], the Ki is reported as 1350 nM. Compound `Cc1cc(C)nc(N2CC3CN(C(=O)c4nc(C)ccc4-c4ncccn4)CC3C2)n1` (stereo not drawn) [Example 421, 2-(4,6-Dimethylpyrimidin-2-yl)-5-[(6-methyl-3-pyrimidin-2-ylpyridin-2-yl)carbonyl]octahydropyrrolo[3,4-c]pyrrole] has a Ki of 108 nM. Compound `Cc1cc(C)nc(N2CC3CN(C(=O)c4nc(C)ccc4-c4ncc(C)o4)CC3C2)n1` (stereo not drawn) [Example 422, 2-(4,6-Dimethylpyrimidin-2-yl)-5-{[6-methyl-3-(5-methyl-1,3-oxazol-2-yl)pyridin-2-yl]carbonyl}octahydropyrrolo[3,4-c]pyrrole] has a Ki of 1050 nM. Compound `COc1ccc(-n2nccn2)c(C(=O)N2CC3CN(c4cc(N(C)C)nc(C)n4)CC3C2)c1` (stereo not drawn) [Example 423, 6-[5-{[5-Methoxy-2-(2H-1,2,3-triazol-2-yl)phenyl]carbonyl}hexahydropyrrolo[3,4-c]pyrrol-2(1H)-yl]-N,N,2-trimethylpyrimidin-4-amine] has a Ki of 182 nM. `CCCOc1ccc(C)nc1C(=O)N1CC2CN(c3cc(N(C)C)nc(C)n3)CC2C1` (stereo not drawn) [Example 424, N,N,2-Trimethyl-6-{5-[(6-methyl-3-propoxypyridin-2-yl)carbonyl]hexahydropyrrolo[3,4-c]pyrrol-2(1H)-yl}pyrimidin-4-amine] gave a Ki of 1160 nM. In the case of `Cc1nc(N(C)C)cc(N2CC3CN(C(=O)c4cc(F)ccc4-c4ncccn4)CC3C2)n1` (stereo not drawn) [Example 425, 6-{5-[(5-Fluoro-2-pyrimidin-2-ylphenyl)carbonyl]hexahydropyrrolo[3,4-c]pyrrol-2(1H)-yl}-N,N,2-trimethylpyrimidin-4-amine], the Ki is reported as 85 nM. `Cc1nc(N(C)C)cc(N2CC3CN(C(=O)c4c(F)cccc4-c4ncccn4)CC3C2)n1` (stereo not drawn) [Example 426, 6-{5-[(2-Fluoro-6-pyrimidin-2-ylphenyl)carbonyl]hexahydropyrrolo[3,4-c]pyrrol-2(1H)-yl}-N,N,2-trimethylpyrimidin-4-amine] showed a Ki of 36 nM.

These compounds were tested against T1, human orexin 2 receptor (assay: Human orexin 2 receptor Ca2+ mobilization assay (FLIPR, PFSK cells, orexin B 100 nM)). Settings: modified Cheng-Prusoff correction, read-out: OR 2 Kb.
Type: cell-based
Work on `CCc1c(C)nc(N2CC3CN(C(=O)c4ccccc4-c4ncn(C)n4)CC3C2)nc1C` (stereo not drawn) [Example 322, 2-(5-Ethyl-4,6-dimethylpyrimidin-2-yl)-5-{[2-(1-methyl-1H-1,2,4-triazol-3-yl)phenyl]carbonyl}octahydropyrrolo[3,4-c]pyrrole] yielded a Kb of 5 nM. In the case of `Cc1nc(N2CC3CN(C(=O)c4ncccc4-n4nccn4)CC3C2)nc(C)c1C` (stereo not drawn) [Example 323, 2-{[3-(2H-1,2,3-Triazol-2-yl)pyridin-2-yl]carbonyl}-5-(4,5,6-trimethylpyrimidin-2-yl)octahydropyrrolo[3,4-c]pyrrole], the Kb is reported as 4 nM. `Cc1nc(N2CC3CN(C(=O)c4ncccc4-n4nccn4)CC3C2)nc(C)c1F` (stereo not drawn) [Example 325, 2-(5-Fluoro-4,6-dimethylpyrimidin-2-yl)-5-{[3-(2H-1,2,3-triazol-2-yl)pyridin-2-yl]carbonyl}octahydropyrrolo[3,4-c]pyrrole] was tested, and the Kb was 2 nM. Work on `Cc1cc(C)nc(N2CC3CN(C(=O)c4cccc5c4-c4ccccc4C5)CC3C2)n1` (stereo not drawn) [Example 326, 2-(4,6-Dimethylpyrimidin-2-yl)-5-(9H-fluoren-4-ylcarbonyl)octahydropyrrolo[3,4-c]pyrrole] yielded a Kb of 4 nM. In the case of `Cc1cc(C)nc(N2CC3CN(C(=O)c4c(-n5nccn5)ccc5c4OCO5)CC3C2)n1` (stereo not drawn) [Example 327, [5-(4,6-Dimethyl-pyrimidin-2-yl)-hexahydro-pyrrolo[3,4-c]pyrrol-2-yl]-(5-[1,2,3]triazol-2-yl-benzo[1,3]dioxol-4-yl)methanone], the Kb is reported as 50 nM. Compound `Cc1cc(C)nc(N2CC3CN(C(=O)c4cccc5cccc(-n6nccn6)c45)CC3C2)n1` (stereo not drawn) [Example 328, [5-(4,6-Dimethyl-pyrimidin-2-yl)-hexahydro-pyrrolo[3,4-c]pyrrol-2-yl]-(8-[1,2,3]triazol-2-yl-naphthalen-1-yl)-methanone] has a Kb of 40 nM. With `Cc1cc(C)nc(N2CC3CN(C(=O)c4cccc(F)c4-c4ccccn4)CC3C2)n1` (stereo not drawn) [Example 367, (5-(4,6-Dimethylpyrimidin-2-yl)hexahydropyrrolo[3,4-c]pyrrol-2(1H)-yl)(3-fluoro-2-(pyridin-2-yl)phenyl)methanone] the Kb was 3 nM. With `Cc1cccc(-c2c(F)cccc2C(=O)N2CC3CN(c4nc(C)cc(C)n4)CC3C2)n1` (stereo not drawn) [Example 370, (5-(4,6-Dimethylpyrimidin-2-yl)hexahydropyrrolo[3,4-c]pyrrol-2(1H)-yl)(3-fluoro-2-(6-methylpyridin-2-yl)phenyl)methanone] the Kb was 7 nM. Compound `Cc1ccnc(-c2c(F)cccc2C(=O)N2CC3CN(c4nc(C)cc(C)n4)CC3C2)c1` (stereo not drawn) [Example 373, (5-(4,6-Dimethylpyrimidin-2-yl)hexahydropyrrolo[3,4-c]pyrrol-2(1H)-yl)(3-fluoro-2-(4-methylpyridin-2-yl)phenyl)methanone] has a Kb of 5 nM. With `Cc1ccc(-c2c(F)cccc2C(=O)N2CC3CN(c4nc(C)cc(C)n4)CC3C2)nc1` (stereo not drawn) [Example 374, (5-(4,6-Dimethylpyrimidin-2-yl)hexahydropyrrolo[3,4-c]pyrrol-2(1H)-yl)(3-fluoro-2-(5-methylpyridin-2-yl)phenyl)methanone] the Kb was 12 nM. In the case of `Cc1cc(C)nc(N2CC3CN(C(=O)c4cccc(F)c4-c4ncccc4F)CC3C2)n1` (stereo not drawn) [Example 375, (5-(4,6-Dimethylpyrimidin-2-yl)hexahydropyrrolo[3,4-c]pyrrol-2(1H)-yl)(3-fluoro-2-(3-fluoropyridin-2-yl)phenyl)methanone], the Kb is reported as 4 nM. Work on `COc1ccc(C(=O)N2CC3CN(c4ncc(F)c(C)n4)CC3C2)c(-n2nccn2)c1` (stereo not drawn) [Example 377, 2-(5-Fluoro-4-methylpyrimidin-2-yl)-5-{[4-methoxy-2-(2H-1,2,3-triazol-2-yl)phenyl]carbonyl}octahydropyrrolo[3,4-c]pyrrole] yielded a Kb of 2 nM. With `COc1ccc(C(=O)N2CC3CN(c4ncc(Cl)c(C)n4)CC3C2)c(-n2nccn2)c1` (stereo not drawn) [Example 378, 2-(5-Chloro-4-methylpyrimidin-2-yl)-5-{[4-methoxy-2-(2H-1,2,3-triazol-2-yl)phenyl]carbonyl}octahydropyrrolo[3,4-c]pyrrole] the Kb was 2 nM. `COc1ccc(C(=O)N2CC3CN(c4nc(C)c(F)c(C)n4)CC3C2)c(-n2nccn2)c1` (stereo not drawn) [Example 379, 2-(5-Fluoro-4,6-dimethylpyrimidin-2-yl)-5-{[4-methoxy-2-(2H-1,2,3-triazol-2-yl)phenyl]carbonyl}octahydropyrrolo[3,4-c]pyrrole] showed a Kb of 5 nM. `COc1ccc(C(=O)N2CC3CN(c4ncc(C)c(C)n4)CC3C2)c(-n2nccn2)c1` (stereo not drawn) [Example 380, 2-(4,5-Dimethylpyrimidin-2-yl)-5-{[4-methoxy-2-(2H-1,2,3-triazol-2-yl)phenyl]carbonyl}octahydropyrrolo[3,4-c]pyrrole] showed a Kb of 5 nM. Compound `CCc1c(C)nc(N2CC3CN(C(=O)c4ncccc4-n4nccn4)CC3C2)nc1C` (stereo not drawn) [Example 385, 2-(5-Ethyl-4,6-dimethylpyrimidin-2-yl)-5-{[3-(2H-1,2,3-triazol-2-yl)pyridin-2-yl]carbonyl}octahydropyrrolo[3,4-c]pyrrole] has a Kb of 8 nM. Compound `O=C(c1cccc(F)c1-c1ncccn1)N1CC2CN(c3cnc4cc(F)c(F)cc4n3)CC2C1` (stereo not drawn) [Example 387, (5-(6,7-Difluoroquinoxalin-2-yl)hexahydropyrrolo[3,4-c]pyrrol-2(1H)-yl)(3-fluoro-2-(pyrimidin-2-yl)phenyl)methanone] has a Kb of 9 nM. `COc1ccc(C(=O)N2CC3CN(c4cnc5cc(F)c(F)cc5n4)CC3C2)c(-n2nccn2)c1` (stereo not drawn) [Example 389, (5-(6,7-Difluoroquinoxalin-2-yl)hexahydropyrrolo[3,4-c]pyrrol-2(1H)-yl)(4-methoxy-2-(2H-1,2,3-triazol-2-yl)phenyl)methanone] was tested, and the Kb was 14 nM. `Cc1cc(C)nc(N2CC3CN(C(=O)c4cccc(F)c4-c4ccccn4)CC3C2)n1` (stereo not drawn) [Example 472, (5-(4,6-dimethylpyrimidin-2-yl)hexahydropyrrolo[3,4-c]pyrrol-2(1H)-yl)(3-fluoro-2-(pyridin-2-yl)phenyl)methanone] showed a Kb of 3 nM.
